Columns and labels:
[1] = tested on: cytochrome-P450-dependent aromatase; details: marine gastropods; Bettin et al. 1995; cited from earlier work
[2] = tested on: Saccharomyces cerevisiae wild strain; assay: Growth and fluorescence test in the presence of inhibitors, wild strain; format: cell-based; details: 0.05 and 0.5 ng/ml mitomycin C, 0.01 and 0.1 ng/ml TPhT, 30° C., 8 hours
[3] = tested on: pdr5yor1snq2 triple-mutant yeast strain; assay: Growth and fluorescence test in the presence of inhibitors, pdr5yor1snq2 triple-mutant strain; format: cell-based, Saccharomyces cerevisiae; details: 0.05 and 0.5 ng/ml mitomycin C, 0.01 and 0.1 ng/ml TPhT, 30° C., 8 hours
[4] = tested on: rad54::egfp reporter in yeast strain HLY5RG-12B2; assay: Genotoxic signaling: egfp under rad54 promoter, green fluorescence; details: depending on concentration: mitomycin C 0.05 and 0.5 ng/ml, TPhT 0.01 and 0.1 ng/ml, 8 hours, 30° C.
Method: (§1) Cultures of Saccharomyces cerevisiae wild strain, of the pdr5yor1snq2 triple-mutant yeast strain and of the genotoxically and cytotoxically signaling strain HLY5RG-12B2 expressing Dsred and egfp were grown in complete medium YPD (2% yeast extract, 1% peptone) with 2% D-glucose, pH 5.0, at 30° C. over night with shaking.
Subsequently, a spectral excitation at 489 nm was performed for the genotoxic substance testing, and the intensity of the emission maxima at 508 nm (specific of egfp) was measured for all cell suspensions.

[5] = tested on: pma1-DsRed1 reporter in yeast strain HLY5RG-12B2; assay: Cytotoxic signaling: DsRed1 under pma1 promoter, red fluorescence; details: depending on concentration: mitomycin C 0.05 and 0.5 ng/ml, TPhT 0.01 and 0.1 ng/ml, 8 hours, 30° C.
Method: as §1
For the cytotoxic substance testing, a spectral excitation at 558 nm was performed, and the intensity of the emission maxima at 583 nm (specific of DsRedp) was measured for all cell suspensions. In addition, a determination of the simple growth of the cells by measuring the optical density at 600 nm was performed.

Substance | effect on aromatization of androgens into estrogens [1] | growth rate (doubling time) [2] [min] | specific red (583 nm) or green (508 nm) fluorescence [2] | growth rate (doubling time) [3] [min] | specific red (583 nm) or green (508 nm) fluorescence [3] | green fluorescence, emission maximum 508 nm (genotoxic potential) [4] | red fluorescence, emission maximum 583 nm (cytotoxic potential) [5]
tributyltin [TBT] | inhibits the aromatization of androgens into estrogens |  |  |  |  |  | 
triphenyltin [TPhT] |  | 90 | without showing a specific red (cytotoxic potential) or green (genotoxic potential) fluorescence | 180 | without showing a specific red (cytotoxic potential) or green (genotoxic potential) fluorescence | no increasing green fluorescence | increasing specific red fluorescence
